Source: PMC4134510 (Journal of medicinal chemistry, 2010)

Columns and labels:
[1] = molecular target: T1, PDK1(h) (Homo sapiens, UniProt O15530); assay: Kinase selectivity panel, enzymatic activity; assay type: biochemical; settings: read-out: Enzymatic activity (% inhibition): PDK1(h)
T1 sequence (O15530 1-556): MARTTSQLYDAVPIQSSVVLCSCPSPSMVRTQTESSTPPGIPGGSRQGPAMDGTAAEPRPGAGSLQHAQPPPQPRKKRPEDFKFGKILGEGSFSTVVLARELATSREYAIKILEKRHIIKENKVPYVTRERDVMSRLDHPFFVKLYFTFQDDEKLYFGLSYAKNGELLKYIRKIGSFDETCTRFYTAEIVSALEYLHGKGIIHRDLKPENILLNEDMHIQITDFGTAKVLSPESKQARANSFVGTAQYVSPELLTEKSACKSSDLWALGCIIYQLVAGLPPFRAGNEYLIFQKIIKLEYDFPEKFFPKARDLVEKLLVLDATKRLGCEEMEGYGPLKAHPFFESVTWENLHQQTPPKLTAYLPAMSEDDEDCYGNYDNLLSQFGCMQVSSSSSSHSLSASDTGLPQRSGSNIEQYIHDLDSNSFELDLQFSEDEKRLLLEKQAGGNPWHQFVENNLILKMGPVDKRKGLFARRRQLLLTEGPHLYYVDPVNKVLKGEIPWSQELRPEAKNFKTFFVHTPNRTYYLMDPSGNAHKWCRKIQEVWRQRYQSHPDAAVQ

[2] = Pharmacokinetic properties on Balb/C mouse; settings: in vivo, oral, 20 mg/kg
[3] = assay type: in vivo; settings: mice, oral once daily

Structure (SMILES): Cc1ccc(Nc2ncc3c(n2)N(C)C(=O)N(c2cc(NC(=O)c4cccc(C(F)(F)F)c4)ccc2C)C3)cn1 [GNF-7]
- inhibition at 10 µM [1]: 0%
- AUC [2]: 26.7 µM·h
- body weight change ([3]; 10 mg/kg dosing group): only a very small weight change
- body weight loss ([3]; doses of 20 mg/kg and above): > 10%
